Consider 1 compound from PMC11947619, “Molecular mechanism of Mad2 conformational conversion promoted by the Mad2‐interaction motif of Cdc20” (Protein Science : A Publication of the Protein Society, 2025).

Structures are written as SMILES. Residues, ends and D or L forms follow the SMILES beside them.

For this assay, the target named is T1, Mad2^∆β7/β8 (Homo sapiens, UniProt Q13257).
T1 construct: a Mad2 variant with a deleted β7/β8 hairpin (Mad2^∆β7/β8: residues 1–165); His6-DoubleStrep-TEV (N); made in house
Description: NMR titration (CSP) of Cdc20^MIM-123-152 into Mad2^∆β7/β8. It is filed as binding. As to conditions: 25°C. Here is the method:
FIGURE 3 Mad2 conversion rates with different Cdc20^MIM peptides. (a) Schematic of human Cdc20. Box1: Box1 motif; C1: C‐box motif; K1: KEN box motif; MIM: Mad2‐interacting motif, residues 123–137; WD40: WD40 domain, residues 182–480; IR: IR tail. (b) Mad2 conversion in the presence of different Cdc20^MIM peptides. Mad2 conversion was traced at 25°C and the changes in the first 30 min are shown. A black tick indicates where conversion is considered complete. NMR data for O‐Mad2^R133A with Cdc20^MIM‐111‐138 shown for comparison are from Fischer et al. ([2022]). (c) The Cdc20^MIM‐138‐152‐binding site was identified by comparing the spectra of C‐Mad2:Cdc20^MIM‐123‐137 with C‐Mad2:Cdc20^MIM‐123‐152 (boxed in b) and analyzing their CSPs (Figure S8e,f). The Cdc20^MIM‐138‐152‐binding site (blue) is mapped onto the structure of C‐Mad2:Cdc20 from the cryo‐EM structure of the APC/C:MCC complex (PDB 6TLJ) (Alfieri et al., [2016], Alfieri et al., [2020]). The O‐Mad2 structural model is superimposed onto the C‐Mad2 structure for comparison. Cdc20 residues 138–152 are in yellow and residues 126–138 are in green. The β7/β8 hairpin in O‐Mad2 (red) blocks both the binding sites for Cdc20 residues 126–138 and residues 138–152. (d) As in c except the β7/β8 hairpin in O‐Mad2 is removed to expose the Cdc20 binding sites. […] (f) Cdc20^MIM‐123‐152 was titrated into Mad2^∆β7/β8 and its binding was analyzed by NMR. […]

Broadly, the Kd is the free concentration of one partner at which half of the binding sites on the other are occupied at equilibrium, for simple one-to-one binding. Consider `CC[C@H](C)[C@H](NC(=O)[C@H](CCCCN)NC(=O)[C@H](C)NC(=O)[C@H](CCC(=O)O)NC(=O)[C@H](CCC(=O)O)NC(=O)[C@@H](NC(=O)[C@H](CC(=O)O)NC(=O)[C@@H](N)Cc1ccccc1)C(C)C)C(=O)N[C@@H](CC(C)C)C(=O)N[C@@H](CCCNC(=N)N)C(=O)N[C@@H](CC(C)C)C(=O)N[C@@H](CO)C(=O)NCC(=O)N[C@@H](CCCCN)C(=O)N1CCC[C@H]1C(=O)N[C@@H](CCC(N)=O)C(=O)N[C@@H](CC(N)=O)C(=O)N[C@@H](C)C(=O)N1CCC[C@H]1C(=O)N[C@@H](CCC(=O)O)C(=O)NCC(=O)N[C@@H](Cc1ccc(O)cc1)C(=O)N[C@@H](CCC(N)=O)C(=O)N[C@@H](CC(N)=O)C(=O)N[C@@H](CCCNC(=N)N)C(=O)N[C@@H](CC(C)C)C(=O)N[C@@H](CCCCN)C(=O)N[C@H](C(=O)N[C@@H](CC(C)C)C(=O)N[C@@H](Cc1ccc(O)cc1)C(=O)O)C(C)C` [Cdc20^MIM‐123‐152] (H-FDVEEAKILRLSGKPQNAPEGYQNRLKVLY-OH; N-terminus and C-terminus assumed), for which the “interaction with Mad2^∆β7/β8, in words” value (NMR CSPs on addition of peptide) is given as “weak interaction”. Further, the Kd (NMR titration, fit of resonance with largest CSP vs ligand concentration, 20 mM HEPES pH 7.0, 100 mM NaCl, 1 mM TCEP, 5% D2O, read-out: KD (estimated)) is > 700 µM.
